ChEMBL document CHEMBL1130806, “Enhanced potency of perfluorinated thalidomide derivatives for inhibition of LPS-induced tumor necrosis factor-alpha production is associated with a change of mechanism of action” (Bioorg Med Chem Lett, 1998)

Legend:
Type in all cases: functional, cell-based
THP-1 = assay: Inhibition of LPS-induced Tumor necrosis factor-alpha production (TNF-alpha) in THP-1 cells; conditions: Homo sapiens
[1] = Compound was tested for the inhibition of production of IL-1 beta in human monocytes
[2] = Compound was tested for the inhibition of production of IL-6 in human monocytes

Compound: C[C@@H](c1ccccc1)N1C(=O)c2c(F)c(F)c(F)c(F)c2C1=O
- IC50 (THP-1): 367 nM

Compound: C[C@]1(N2C(=O)c3c(F)c(F)c(F)c(F)c3C2=O)CCC(=O)NC1=O
- IC50 (THP-1): 443 nM

Compound: C[C@@]1(N2C(=O)c3c(F)c(F)c(F)c(F)c3C2=O)CCC(=O)NC1=O
- IC50 (THP-1): 494 nM

Compound: COC(=O)C[C@H](c1ccc(OC)c(OC)c1)N1C(=O)c2c(F)c(F)c(F)c(F)c2C1=O
- IC50 (THP-1): 250 nM

Compound: CN1C(=O)c2c(F)c(F)c(F)c(F)c2C1=O
- IC50 (THP-1): 413 nM

Compound: O=C1CCC(N2C(=O)c3c(F)c(F)c(F)c(F)c3C2=O)C(=O)N1 (stereo unspecified)
- IC50 [1]: 400 nM
- IC50 [2]: 700 nM
- IC50 (THP-1): 490 nM

Compound: COC(=O)C[C@@H](c1ccc(OC)c(OC)c1)N1C(=O)c2c(F)c(F)c(F)c(F)c2C1=O
- IC50 (THP-1): 313 nM

Compound: C[C@H](c1ccccc1)N1C(=O)c2c(F)c(F)c(F)c(F)c2C1=O
- IC50 (THP-1): 434 nM

Compound: O=C1c2c(F)c(F)c(F)c(F)c2C(=O)N1c1ccccc1
- IC50 (THP-1): 425 nM

Compound: CC(c1ccccc1)N1C(=O)c2c(F)c(F)c(F)c(F)c2C1=O (racemic)
- IC50 (THP-1): 415 nM

Compound: CC1(N2C(=O)c3c(F)c(F)c(F)c(F)c3C2=O)CCC(=O)NC1=O (racemic)
- IC50 (THP-1): 378 nM

Compound: COC(=O)CC(c1ccc(OC)c(OC)c1)N1C(=O)c2c(F)c(F)c(F)c(F)c2C1=O (racemic)
- IC50 [1]: 400 nM
- IC50 [2]: 300 nM
- IC50 (THP-1): 249 nM
